ChEMBL document CHEMBL1926648, “Synthesis and biological activity of dihydroimidazole and 3,4-dihydrobenzo[4,5]imidazo[1,2-a][1,3,5]triazins” (2012)

Tests used:
Assay type in all cases: functional
Settings in all cases: read-out: IZ
Pseudomonas aeruginosa [1] = experiment: Antibacterial activity against Pseudomonas aeruginosa at 30000 ppm after 24 hrs by agar diffusion method
Bacillus cereus [2] = experiment: Antibacterial activity against Bacillus cereus at 50000 ppm after 24 hrs by agar diffusion method
Bacillus subtilis [3] = experiment: Antibacterial activity against Bacillus subtilis at 30000 ppm after 24 hrs by agar diffusion method
Staphylococcus aureus [4] = experiment: Antibacterial activity against Staphylococcus aureus at 50000 ppm after 24 hrs by agar diffusion method
Kocuria rosea [5] = experiment: Antibacterial activity against Micrococcus roseus at 30000 ppm after 24 hrs by agar diffusion method
Staphylococcus aureus [6] = experiment: Antibacterial activity against Staphylococcus aureus at 10000 ppm after 24 hrs by agar diffusion method
Escherichia coli [7] = experiment: Antibacterial activity against Escherichia coli at 30000 ppm after 24 hrs by agar diffusion method
Micrococcus luteus [8] = experiment: Antibacterial activity against Micrococcus luteus at 10000 ppm after 24 hrs by agar diffusion method
Bacillus cereus [9] = experiment: Antibacterial activity against Bacillus cereus at 10000 ppm after 24 hrs by agar diffusion method
Kocuria rosea [10] = experiment: Antibacterial activity against Micrococcus roseus at 10000 ppm after 24 hrs by agar diffusion method
Bacillus subtilis [11] = experiment: Antibacterial activity against Bacillus subtilis at 50000 ppm after 24 hrs by agar diffusion method
Micrococcus luteus [12] = experiment: Antibacterial activity against Micrococcus luteus at 30000 ppm after 24 hrs by agar diffusion method
Kocuria rosea [13] = experiment: Antibacterial activity against Micrococcus roseus at 50000 ppm after 24 hrs by agar diffusion method
Staphylococcus aureus [14] = experiment: Antibacterial activity against Staphylococcus aureus at 30000 ppm after 24 hrs by agar diffusion method
Micrococcus luteus [15] = experiment: Antibacterial activity against Micrococcus luteus at 50000 ppm after 24 hrs by agar diffusion method
Bacillus subtilis [16] = experiment: Antibacterial activity against Bacillus subtilis at 10000 ppm after 24 hrs by agar diffusion method
Pseudomonas aeruginosa [17] = experiment: Antibacterial activity against Pseudomonas aeruginosa at 50000 ppm after 24 hrs by agar diffusion method
Escherichia coli [18] = experiment: Antibacterial activity against Escherichia coli at 50000 ppm after 24 hrs by agar diffusion method
Pseudomonas aeruginosa [19] = experiment: Antibacterial activity against Pseudomonas aeruginosa at 10000 ppm after 24 hrs by agar diffusion method
Escherichia coli [20] = experiment: Antibacterial activity against Escherichia coli at 10000 ppm after 24 hrs by agar diffusion method
Bacillus cereus [21] = experiment: Antibacterial activity against Bacillus cereus at 30000 ppm after 24 hrs by agar diffusion method

Row | SMILES | zone of inhibition at 30000 ppm (Pseudomonas aeruginosa [1]) [mm] | zone of inhibition at 50000 ppm (Bacillus cereus [2]) [mm] | zone of inhibition at 30000 ppm (Bacillus subtilis [3]) [mm] | zone of inhibition at 50000 ppm (Staphylococcus aureus [4]) [mm] | zone of inhibition at 30000 ppm (Kocuria rosea [5]) [mm] | zone of inhibition at 10000 ppm (Staphylococcus aureus [6]) [mm] | zone of inhibition at 30000 ppm (Escherichia coli [7]) [mm] | zone of inhibition at 10000 ppm (Micrococcus luteus [8]) [mm] | zone of inhibition at 10000 ppm (Bacillus cereus [9]) [mm] | zone of inhibition at 50000 ppm (Bacillus subtilis [11]) [mm] | zone of inhibition at 30000 ppm (Micrococcus luteus [12]) [mm] | zone of inhibition at 50000 ppm (Kocuria rosea [13]) [mm] | zone of inhibition at 30000 ppm (Staphylococcus aureus [14]) [mm] | zone of inhibition at 50000 ppm (Micrococcus luteus [15]) [mm] | zone of inhibition at 10000 ppm (Bacillus subtilis [16]) [mm] | zone of inhibition at 50000 ppm (Pseudomonas aeruginosa [17]) [mm] | zone of inhibition at 50000 ppm (Escherichia coli [18]) [mm] | zone of inhibition at 10000 ppm (Pseudomonas aeruginosa [19]) [mm] | zone of inhibition at 10000 ppm (Escherichia coli [20]) [mm] | zone of inhibition at 30000 ppm (Bacillus cereus [21]) [mm] | other results
1 | N#Cc1[nH]/c(=N/c2nc3ccccc3[nH]2)[nH]c1N | 8 | 14 | 11 | 7 | 7 | 3 | 13 | 4 | 6 | 16 | 7 | 9 | 7 | 9 | 8 | 9 | 19 | 6 | 8 | 10 | zone of inhibition at 10000 ppm (Kocuria rosea [10]): 4 mm
2 | NC1=NC2(CCCC2)n2c(nc3ccccc32)N1 | – | 9 | 12 | 6 | 3 | – | 17 | 7 | – | 15 | 7 | 8 | 4 | 12 | 9 | 5 | 20 | – | 12 | 5 | –
3 | NC1=NC2(CCCCC2)n2c(nc3ccccc32)N1 | 4 | 9 | 11 | 5 | – | – | 15 | 7 | – | 13 | 7 | 5 | – | 12 | 7 | 5 | 18 | – | 12 | 4 | –
4 | Oc1c[nH]/c(=N/c2nc3ccccc3[nH]2)[nH]1 | 8 | 10 | – | 13 | 6 | 2 | 8 | – | – | 7 | 5 | 8 | 7 | 9 | – | 11 | 13 | 5 | 6 | 5 | –
5 | NC1=Nc2nc3ccccc3n2C2(NC(=O)CC(=O)N2)N1 | 6 | 7 | 10 | 8 | 4 | – | 11 | – | 1 | 14 | 4 | 7 | 5 | 6 | 6 | 9 | 15 | 2 | 8 | 4 | zone of inhibition at 10000 ppm (Kocuria rosea [10]): 1 mm
6 | NC1=Nc2nc3ccccc3n2C2(NC(=O)CS2)N1 (stereo unspecified) | 8 | 11 | 13 | 8 | 7 | 3 | 5 | – | 6 | 16 | 3 | 10 | 5 | 7 | 9 | 11 | 8 | 5 | – | 8 | zone of inhibition at 10000 ppm (Kocuria rosea [10]): 4 mm
